According to paper PMC10975061, “Cellular Uptake and Transport Mechanism Investigations of PEGylated Niosomes for Improving the Oral Delivery of Thymopentin” (Pharmaceutics, 2024):
Read-outs that look alike come from different tables or passages of the source. Peptide text beside a SMILES is read from it.

What was measured:
[1] = test system: Caco-2 and HT-29 co-cultured cells; experiment: MTT cytotoxicity (cell viability) assay
Method: MTT assay was used for the cytotoxicity study. […] The DMEM was discarded, and the Caco-2 and HT-29 co-cultured cells were washed with PBS before introducing TP5 test samples. […] Subsequently, 20 μL of MTT (5 mg/mL) was added, and the cells were incubated for an additional 4 h. Dimethyl sulfoxide (DMSO) was introduced to dissolve the formazan crystals, and the absorbance at 570 nm was measured using a microplate UV-Vis spectrophotometer (SpectraMax® Plus, Molecular Devices, San Jose, CA, USA). The percentage of cell viability was calculated in comparison to the untreated control group.
For each test sample group and at every time point over the course of three days, cell viability was computed. The outcomes were consolidated using the SoftMax Pro v5 software system through Equation (1). (1) V=A/A0×100% where V is the cell viability, A is sample absorbance, and A0 is control absorbance.
The concentration of these selected inhibitors and enhancers was screened by cytotoxicity using Caco-2 and HT-29 co-cultured cells by MTT assay. Then, these inhibitors and enhancers with safe concentrations were added to the AP side with a 0.5 mL 1 mg/mL solution of TP5 and TP5-PEG-niosomes, respectively. All inhibitors were dissolved in dimethyl sulfoxide and diluted with HBSS. The transport characteristics of TP5 and TP5-PEG-niosomes through Caco-2 and HT-29 co-cultured cell monolayers were expressed as the cumulative transported drug and transport rate. The transport rate (Flux) was denoted in μg/min/cm^2 and computed using the formula Flux = (dM/dt)/A, where dM/dt represents the cumulative amount of TP5 in the BL side per unit time (µg/min), and A is the surface area of the insert membrane (1.1 cm^2). […] The TEER values of the monolayers were assessed at 1 h intervals throughout the experimental duration, guaranteeing the integrity of the monolayers.

[2] = test system: Caco-2 and HT-29 co-cultured cell monolayers; experiment: Transepithelial transport across Transwell monolayers (AP to BL), with inhibitors and enhancers; type: in vitro ADME, human
Method: (§1) Caco-2 and HT-29 co-cultured cells at a density of 10^5 cells/cm^2 were seeded on 12-well Insert Transwell® inserts (0.4 µm pore diameter, 1.1 cm^2 area, Corning, New York, NY, USA). Caco-2 and HT-29 co-cultured cells were incubated at 37 °C in an atmosphere of 5% CO2 and 95% relative humidity in complete DMEM. The medium was replaced every 3 days with 0.5 mL medium on the apical (AP) side and 1.5 mL on the basolateral (BL) side, as shown in Figure 2. The integrity of the co-cultured cell monolayer was assessed by monitoring transepithelial electrical resistance (TEER). TEER measurements were conducted using a Millicell-ERS Volt-Ohm meter connected to a pair of chopstick electrodes (Millipore Corp, Boston, MA, USA). […] TEER measurements were taken at 3-day intervals until the TEER values surpassed 350 Ω·cm^2 (around 24 days post-seeding in this study). The TEER calculation utilized the formula TEER = (Rm − Rb) × A, where Rm, Rb, and A represent the measured TEER values, TEER values of the blank transwell, and the membrane surface area of the transwell (1.13 cm^2), respectively. Caco-2 monolayers with TEER values exceeding 350 Ω·cm^2 were deemed to have acceptable integrity and were considered suitable for the transport study.
(§2) Before the transport experiments, Caco-2 and HT-29 co-cultured cell monolayers underwent equilibration with HBSS for 30 min and were subsequently aspirated. All transport studies were carried out at 37 °C. A 0.5 mL solution of TP5 and TP5-PEG-niosomes (0.1 mg TP5 per mL in HBSS) was introduced on the AP side, while the BL side of the inserts contained 1.5 mL of HBSS, as depicted in Figure 2. At 0, 60, 120, 240, and 360 min of incubation, 200 µL was withdrawn from the BL-receiving chamber and immediately replaced with an equal volume of pre-warmed HBSS (37 °C). The concentration of TP5 in the transport medium was analyzed using RP-HPLC.
(§3) TP5 transport mechanisms were investigated in the absence or presence of variable inhibitors or enhancers. […] […].

[3] = as above; type: in vitro ADME, human; settings: apical to basolateral, 6 h
Method: as §1, §2, §3

[4] = test system: Caco-2 and HT-29 co-cultured cells; experiment: Quantitative cellular uptake of TP5 (RP-HPLC and BCA protein assay), with inhibitors and low temperature; type: in vitro ADME, human
Method: Briefly, 5 mL of Caco-2 and HT-29 co-cultured cells’ suspension at a density of 10^5 cells/cm^2 was seeded onto 60 mm plastic dishes (Corning, New York, NY, USA), fed complete DMEM every 3 days and incubated at 37 °C in an atmosphere of 5% CO2 and 95% relative humidity. […] Then, 25 µL of the cell lysates from each well were subjected to a BCA protein assay (Thermo Scientific, Waltham, MA, USA) to determine the amount of cell protein. The entire protein concentration in each group was calculated based on the linearity equation obtained from the BSA standard curve. Then, cell lysates were centrifuged for 15 min at 14,000 rpm, and the supernatants were analyzed for the amount of uptake TP5 using the RP-HPLC method mentioned earlier. The uptake of TP5 by Caco-2 and HT-29 co-cultured cells was calculated and expressed as the amount of drug (ng) uptake per µg cell protein. One of the mechanisms for cellular uptake depends on concentration. […] The treated Caco-2 and HT-29 co-cultured cells were then scraped off into a 2 mL microcentrifuge tube containing 1.0 mL extraction solution (10% Triton X-100) and sonicated to accelerate cell lysis. Then, 25 µL of the cell lysates from each well were subjected to a BCA protein assay (Thermo Scientific, Waltham, MA, USA) to determine the amount of cell protein as mentioned above. Then, cell lysates were centrifuged for 15 min at 14,000 rpm, and the supernatants were analyzed for the amount of uptake TP5 using the RP-HPLC method mentioned above. The uptake of TP5 by Caco-2 and HT-29 co-cultured cells was calculated and expressed as the amount of drug (ng) uptake per µg cell protein. […] The incubation temperature of 4 °C was also tested. After the removal of the drug solution and formulation (4 h incubation), the dishes were immediately rinsed twice with ice-cold HBSS solution (5 mL). The treated Caco-2 and HT-29 co-cultured cells were then scraped off into a 2 mL microcentrifuge tube containing 1.0 mL extraction solution (10% Triton X-100) and sonicated to accelerate cell lysis. Furthermore, 25 µL of the cell lysates from each well were subjected to a BCA protein assay (Thermo Scientific, Waltham, MA, USA) to determine the amount of cell protein mentioned above. Then, cell lysates were centrifuged for 15 min at 14,000 rpm, and the supernatants were analyzed for the amount of cellular uptake TP5 using the RP-HPLC method mentioned above. The uptake of TP5 by Caco-2 and HT-29 co-cultured cells was calculated and expressed as the amount of drug (ng) uptake per µg cell protein.

CN(C)C(=O)CCSC(SCCC(=O)O)c1cccc(/C=C/c2ccc3ccc(Cl)cc3n2)c1 (stereo not shown) [MK-571]
safe but still effective concentration for treatment ([1]; MTT, 72 h at 37 °C): 0.1 mM

C[C@H](CCC(=O)NCCS(=O)(=O)O)[C@H]1CC[C@H]2[C@@H]3[C@H](O)C[C@@H]4C[C@H](O)CC[C@]4(C)[C@H]3C[C@H](O)[C@]12C [Sodium taurocholate]
safe but still effective concentration for treatment ([1]; MTT, 72 h at 37 °C): 20 mM

CC(C)[C@H](NC(=O)[C@H](CC(=O)O)NC(=O)[C@H](CCCCN)NC(=O)[C@@H](N)CCCN=C(N)N)C(=O)N[C@@H](Cc1ccc(O)cc1)C(=O)O [TP5, thymopentin] (H-RKDVY-OH)
cytotoxicity (MTT cell viability) ([1]; TP5 solutions 0.005 to 10 mg/mL, 24, 48 and 72 h): not toxic | TP5 cumulative amount with EDTA ([2]; EDTA group, after the first 60 min): increase sharply | cumulative amount of TP5 transported, comparison between groups ([2]; no treatment, AP to BL): no significant difference | TP5 cumulative amount with sodium taurocholate ([2]; sodium taurocholate group, after the first 60 min): increase sharply | Papp A→B ([3]; EDTA (10 mM), read-out: Papp values): 0.142 ± 0.0089 ×10⁻⁶ cm/s | Papp A→B ([3]; chlorpromazine (10 μg/mL), read-out: Papp values): 0.0573 ± 0.0063 ×10⁻⁶ cm/s | Papp A→B ([3]; lowest to highest over no treatment, inhibitors and enhancers, read-out: range of Papp values over all treatments): 0.043 to 0.134 ×10⁻⁶ cm/s | Papp A→B ([3]; no treatment, read-out: Papp values): 0.0539 ± 0.0046 ×10⁻⁶ cm/s | Papp A→B ([3]; silymarin (20 µM), read-out: Papp values): 0.043 ± 0.0055 ×10⁻⁶ cm/s | Papp A→B ([3]; sodium azide (20 mM), read-out: Papp values): 0.059 ± 0.0052 ×10⁻⁶ cm/s | Papp A→B ([3]; sodium taurocholate (20 mM), read-out: Papp values): 0.134 ± 0.0052 ×10⁻⁶ cm/s | cellular uptake amount with adsorptive-mediated endocytosis inhibitor ([4]; 1 mM protamine sulphate, 4 h, p < 0.005): significantly reduced | cellular uptake amount at low temperature ([4]; 4 °C, 4 h): significantly decreased | time of highest amount of cellular uptake drug ([4]; HPLC and BCA assay, time course 0.5-5 h): 2 h | cellular uptake value ([4]; pure drug solution, in 2 h, maintained afterwards): 3.56 ± 1.13 ng/µg

CN(C)CCCN1c2ccccc2Sc2ccc(Cl)cc21 [chlorpromazine]
safe but still effective concentration for treatment ([1]; human, 72 h): 10 µg/mL

[N-]=[N+]=[N-].[Na+] [sodium azide]
safe but still effective concentration for treatment ([1]; MTT, 72 h at 37 °C): 20 mM
